Patent publication US20250059198A1, “BRM DEGRADING COMPOUNDS AND ASSOCIATED METHODS OF USE” (Arvinas Operations, Inc., priority 2021, published 2025)

Target: T1, BRM (Homo sapiens, UniProt P51531)
T1 construct: Western Blot Screen of BRM Degradation in SW1573 Cells; endogenous in cells; host or cells: SW1573 cells
Assay: BRM degradation (Dmax and DC50) in SW1573 cells, Western blot screen / In-Cell Western screen
Assay type: cell-based
Settings: overnight (18-20 hours) treatment; for Dmax: read-out: Dmax (%)** (% degraded)
Outline: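 Dmax and DC50 were derived from BRM levels normalised to an alpha-tubulin control, measured by chemiluminescent Western blotting of lysates or by PFA-fixed In-Cell Western on LI-COR Odyssey. SW1573 cells received compound overnight (18–20 h, 0.1% DMSO final).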

T1 sequence (P51531 whole entry): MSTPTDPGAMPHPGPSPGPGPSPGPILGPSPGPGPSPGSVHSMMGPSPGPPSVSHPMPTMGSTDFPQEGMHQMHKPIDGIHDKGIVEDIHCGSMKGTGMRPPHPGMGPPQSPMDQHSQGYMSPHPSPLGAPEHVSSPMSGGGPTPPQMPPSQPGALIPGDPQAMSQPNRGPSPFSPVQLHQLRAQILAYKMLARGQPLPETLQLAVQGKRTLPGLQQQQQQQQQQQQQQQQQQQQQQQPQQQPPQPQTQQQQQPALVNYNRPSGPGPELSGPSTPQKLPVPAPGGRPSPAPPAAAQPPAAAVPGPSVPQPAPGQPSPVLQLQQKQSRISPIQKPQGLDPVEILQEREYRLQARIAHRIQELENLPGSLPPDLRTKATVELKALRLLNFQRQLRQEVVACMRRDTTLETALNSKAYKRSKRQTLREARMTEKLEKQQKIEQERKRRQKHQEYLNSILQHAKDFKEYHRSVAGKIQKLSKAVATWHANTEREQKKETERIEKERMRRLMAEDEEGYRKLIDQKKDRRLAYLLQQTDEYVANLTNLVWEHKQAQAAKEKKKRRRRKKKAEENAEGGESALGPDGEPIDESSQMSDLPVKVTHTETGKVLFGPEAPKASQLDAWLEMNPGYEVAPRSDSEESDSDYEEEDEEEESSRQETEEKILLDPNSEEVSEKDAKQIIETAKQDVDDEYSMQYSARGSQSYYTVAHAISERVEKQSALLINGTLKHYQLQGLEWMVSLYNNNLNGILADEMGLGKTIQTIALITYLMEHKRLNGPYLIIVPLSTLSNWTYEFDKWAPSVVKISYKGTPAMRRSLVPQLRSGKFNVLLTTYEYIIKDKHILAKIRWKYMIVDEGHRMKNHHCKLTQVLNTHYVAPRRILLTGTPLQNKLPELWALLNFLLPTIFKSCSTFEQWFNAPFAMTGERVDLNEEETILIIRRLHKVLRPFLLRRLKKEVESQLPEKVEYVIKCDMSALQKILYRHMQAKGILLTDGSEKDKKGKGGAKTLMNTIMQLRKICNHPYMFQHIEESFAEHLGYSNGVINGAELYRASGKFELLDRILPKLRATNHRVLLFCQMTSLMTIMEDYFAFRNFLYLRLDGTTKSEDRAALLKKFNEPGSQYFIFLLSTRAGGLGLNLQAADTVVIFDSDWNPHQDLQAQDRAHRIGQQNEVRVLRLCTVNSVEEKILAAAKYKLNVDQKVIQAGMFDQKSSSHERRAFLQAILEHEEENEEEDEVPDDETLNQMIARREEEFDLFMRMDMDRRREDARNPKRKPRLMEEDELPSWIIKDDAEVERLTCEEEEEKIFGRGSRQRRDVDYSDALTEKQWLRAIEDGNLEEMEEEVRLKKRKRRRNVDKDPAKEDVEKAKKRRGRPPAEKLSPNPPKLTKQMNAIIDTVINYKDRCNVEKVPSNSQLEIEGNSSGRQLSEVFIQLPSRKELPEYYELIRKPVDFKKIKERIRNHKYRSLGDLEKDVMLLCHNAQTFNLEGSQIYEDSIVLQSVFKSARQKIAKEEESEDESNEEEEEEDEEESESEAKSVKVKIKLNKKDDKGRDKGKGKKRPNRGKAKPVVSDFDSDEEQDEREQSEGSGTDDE

| SMILES | DC50 [nM] | Dmax [%] |
| --- | --- | --- |
| CC(C)[C@@H](C(=O)N1C[C@H](O)C[C@H]1C(=O)N[C@@H](C)c1ccc(-c2ccnn2C)cc1)c1cc(N2CCC(CN3CCC(O[C@H]4C[C@H](Oc5cc(/C=C(\F)c6cc(-c7ccccc7O)nnc6N)ccn5)C4)CC3)CC2)no1 [Compound 51, (2S,4R)-4-hydroxy-N-[(1S)-1-[4-(1-methyl-1H-pyrazol-5-yl)phenyl]ethyl]-1-[(2R)-3-methyl-2-{3-[4-({4-[(1r,3r)-3-[(4-{2-[3-amino-6-(2-hydroxyphenyl)pyridazin-4-yl]-2-fluoroethenyl}pyridin-2-yl)oxy]cyclobutoxy]piperidin-1-yl}methyl)piperidin-1-yl]-1,2-oxazol-5-yl}butanoyl]pyrrolidine-2-carboxamide] | < 2.5 | > 75 |
| CC(C)[C@@H](C(=O)N1C[C@H](O)C[C@H]1C(=O)N[C@@H](C)c1ccc(-c2ccnn2C)cc1)c1cc(N2CCC(CN3CCC(Oc4cc(/C=C(\F)c5cc(-c6ccccc6O)nnc5N)ccn4)CC3)CC2)no1 [Compound 52, (2S,4R)-1-[(2R)-2-{3-[4-({4-[(4-{2-[3-amino-6-(2-hydroxyphenyl)pyridazin-4-yl]-2-fluoroethenyl}pyridin-2-yl)oxy]piperidin-1-yl}methyl)piperidin-1-yl]-1,2-oxazol-5-yl}-3-methylbutanoyl]-4-hydroxy-N-[(1S)-1-[4-(1-methyl-1H-pyrazol-5-yl)phenyl]ethyl]pyrrolidine-2-carboxamide] | < 2.5 | > 75 |
| Cc1ncsc1-c1ccc([C@H](C)NC(=O)[C@@H]2C[C@@H](O)CN2C(=O)[C@@H](c2cc(N3CCC(CN4CCC(O[C@H]5C[C@H](N6CC(F)(F)OC7(CCN(c8cc(-c9ccccc9O)nnc8N)CC7)C6)C5)CC4)CC3)no2)C(C)C)cc1 [Compound 55, (2S,4R)-4-hydroxy-N-[(1S)-1-[4-(4-methyl-1,3-thiazol-5-yl)phenyl]ethyl]-1-[(2R)-3-methyl-2-{3-[4-({4-[(1r,3r)-3-{9-[3-amino-6-(2-hydroxyphenyl)pyridazin-4-yl]-2,2-difluoro-1-oxa-4,9-diazaspiro[5.5]undecan-4-yl}cyclobutoxy]piperidin-1-yl}methyl)piperidin-1-yl]-1,2-oxazol-5-yl}butanoyl]pyrrolidine-2-carboxamide] | < 2.5 | > 75 |
| Cc1ncsc1-c1ccc([C@H](C)NC(=O)[C@@H]2C[C@@H](O)CN2C(=O)[C@@H](c2cc(N3CCC(OC4CCN(C[C@H]5C[C@H](N6CCOC7(CCN(c8cc(-c9ccccc9O)nnc8N)CC7)C6)C5)CC4)CC3)no2)C(C)C)cc1 [Compound 56, (2S,4R)-4-hydroxy-N-[(1S)-1-[4-(4-methyl-1,3-thiazol-5-yl)phenyl]ethyl]-1-[(2R)-3-methyl-2-(3-{4-[(1-{[(1r,3r)-3-{9-[3-amino-6-(2-hydroxyphenyl)pyridazin-4-yl]-1-oxa-4,9-diazaspiro[5.5]undecan-4-yl}cyclobutyl]methyl}piperidin-4-yl)oxy]piperidin-1-yl}-1,2-oxazol-5-yl)butanoyl]pyrrolidine-2-carboxamide] | < 2.5 | > 75 |
| Cc1ncsc1-c1ccc([C@H](C)NC(=O)[C@@H]2C[C@@H](O)CN2C(=O)[C@@H](c2cc(N3CCC(CN4CCC(O[C@H]5C[C@H](N6CCN(CC7(O)CCN(c8cc(-c9ccccc9O)nnc8N)CC7)CC6)C5)CC4)CC3)no2)C(C)C)cc1 [Compound 57, (2S,4R)-4-hydroxy-N-[(1S)-1-[4-(4-methyl-1,3-thiazol-5-yl)phenyl]ethyl]-1-[(2R)-3-methyl-2-{3-[4-({4-[(1r,3r)-3-[4-({1-[3-amino-6-(2-hydroxyphenyl)pyridazin-4-yl]-4-hydroxypiperidin-4-yl}methyl)piperazin-1-yl]cyclobutoxy]piperidin-1-yl}methyl)piperidin-1-yl]-1,2-oxazol-5-yl}butanoyl]pyrrolidine-2-carboxamide] | < 2.5 | > 75 |
| Cc1ncsc1-c1ccc([C@H](C)NC(=O)[C@@H]2C[C@@H](O)CN2C(=O)[C@@H](c2cc(N3CCC(CN4CCC5(CC4)CC(N4CCC(C(=O)N6C7CCC6CN(c6cc(-c8ccccc8O)nnc6N)C7)CC4)C5)CC3)no2)C(C)C)cc1 [Compound 58, (2S,4R)-1-[(2R)-2-[3-(4-{[2-(4-{3-[3-amino-6-(2-hydroxyphenyl)pyridazin-4-yl]-3,8-diazabicyclo[3.2.1]octane-8-carbonyl}piperidin-1-yl)-7-azaspiro[3.5]nonan-7-yl]methyl}piperidin-1-yl)-1,2-oxazol-5-yl]-3-methylbutanoyl]-4-hydroxy-N-[(1S)-1-[4-(4-methyl-1,3-thiazol-5-yl)phenyl]ethyl]pyrrolidine-2-carboxamide] | < 2.5 | > 75 |
| Cc1ncsc1-c1ccc([C@H](C)NC(=O)[C@@H]2C[C@@H](O)CN2C(=O)[C@@H](c2cc(N3CCC(CN4CC[C@@H](Oc5cc(N6C7CCC6CN(c6cc(-c8ccccc8O)nnc6N)C7)ccn5)[C@H](F)C4)CC3)no2)C(C)C)cc1 [Compound 59, (2S,4R)-1-[(2R)-2-[3-(4-{[(3R,4R)-4-[(4-{3-[3-amino-6-(2-hydroxyphenyl)pyridazin-4-yl]-3,8-diazabicyclo[3.2.1]octan-8-yl}pyridin-2-yl)oxy]-3-fluoropiperidin-1-yl]methyl}piperidin-1-yl)-1,2-oxazol-5-yl]-3-methylbutanoyl]-4-hydroxy-N-[(1S)-1-[4-(4-methyl-1,3-thiazol-5-yl)phenyl]ethyl]pyrrolidine-2-carboxamide] | 10 to 30 | > 75 |
| Cc1ncsc1-c1ccc([C@H](C)NC(=O)[C@@H]2C[C@@H](O)CN2C(=O)[C@@H](c2cc(N3CCC(CN4CC[C@H](Oc5cc(N6C7CCC6CN(c6cc(-c8ccccc8O)nnc6N)C7)ccn5)[C@@H](F)C4)CC3)no2)C(C)C)cc1 [Compound 60, (2S,4R)-1-[(2R)-2-[3-(4-{[(3S,4S)-4-[(4-{3-[3-amino-6-(2-hydroxyphenyl)pyridazin-4-yl]-3,8-diazabicyclo[3.2.1]octan-8-yl}pyridin-2-yl)oxy]-3-fluoropiperidin-1-yl]methyl}piperidin-1-yl)-1,2-oxazol-5-yl]-3-methylbutanoyl]-4-hydroxy-N-[(1S)-1-[4-(4-methyl-1,3-thiazol-5-yl)phenyl]ethyl]pyrrolidine-2-carboxamide] | < 2.5 | > 75 |
| Cc1ncsc1-c1ccc([C@H](C)NC(=O)[C@@H]2C[C@@H](O)CN2C(=O)[C@@H](c2cc(N3CCC(CN4CCC5(CC4)CC(N4CCC[C@](O)(CN6C7CCC6CN(c6cc(-c8ccccc8O)nnc6N)C7)C4)C5)CC3)no2)C(C)C)cc1 [Compound 61, (2S,4R)-1-[(2R)-2-{3-[4-({2-[(3R)-3-({3-[3-amino-6-(2-hydroxyphenyl)pyridazin-4-yl]-3,8-diazabicyclo[3.2.1]octan-8-yl}methyl)-3-hydroxypiperidin-1-yl]-7-azaspiro[3.5]nonan-7-yl}methyl)piperidin-1-yl]-1,2-oxazol-5-yl}-3-methylbutanoyl]-4-hydroxy-N-[(1S)-1-[4-(4-methyl-1,3-thiazol-5-yl)phenyl]ethyl]pyrrolidine-2-carboxamide] | < 2.5 | > 75 |
